25 compounds from patent publication US8741894B2, “Arylsulfonamide CCR3 antagonists” (Axikin Pharmaceuticals, Inc., priority 2010, dated 2014) can be followed below.

Each structure is given as a SMILES string.

The target in the first assay is T1, hERG channel (Homo sapiens, UniProt Q12809).
T1 construct: purchased Perkin Elmer RBHERGM400UA; host or cells: HEK-293 cells transfected with hERG (membrane preparation)
T1 sequence (Q12809 whole entry): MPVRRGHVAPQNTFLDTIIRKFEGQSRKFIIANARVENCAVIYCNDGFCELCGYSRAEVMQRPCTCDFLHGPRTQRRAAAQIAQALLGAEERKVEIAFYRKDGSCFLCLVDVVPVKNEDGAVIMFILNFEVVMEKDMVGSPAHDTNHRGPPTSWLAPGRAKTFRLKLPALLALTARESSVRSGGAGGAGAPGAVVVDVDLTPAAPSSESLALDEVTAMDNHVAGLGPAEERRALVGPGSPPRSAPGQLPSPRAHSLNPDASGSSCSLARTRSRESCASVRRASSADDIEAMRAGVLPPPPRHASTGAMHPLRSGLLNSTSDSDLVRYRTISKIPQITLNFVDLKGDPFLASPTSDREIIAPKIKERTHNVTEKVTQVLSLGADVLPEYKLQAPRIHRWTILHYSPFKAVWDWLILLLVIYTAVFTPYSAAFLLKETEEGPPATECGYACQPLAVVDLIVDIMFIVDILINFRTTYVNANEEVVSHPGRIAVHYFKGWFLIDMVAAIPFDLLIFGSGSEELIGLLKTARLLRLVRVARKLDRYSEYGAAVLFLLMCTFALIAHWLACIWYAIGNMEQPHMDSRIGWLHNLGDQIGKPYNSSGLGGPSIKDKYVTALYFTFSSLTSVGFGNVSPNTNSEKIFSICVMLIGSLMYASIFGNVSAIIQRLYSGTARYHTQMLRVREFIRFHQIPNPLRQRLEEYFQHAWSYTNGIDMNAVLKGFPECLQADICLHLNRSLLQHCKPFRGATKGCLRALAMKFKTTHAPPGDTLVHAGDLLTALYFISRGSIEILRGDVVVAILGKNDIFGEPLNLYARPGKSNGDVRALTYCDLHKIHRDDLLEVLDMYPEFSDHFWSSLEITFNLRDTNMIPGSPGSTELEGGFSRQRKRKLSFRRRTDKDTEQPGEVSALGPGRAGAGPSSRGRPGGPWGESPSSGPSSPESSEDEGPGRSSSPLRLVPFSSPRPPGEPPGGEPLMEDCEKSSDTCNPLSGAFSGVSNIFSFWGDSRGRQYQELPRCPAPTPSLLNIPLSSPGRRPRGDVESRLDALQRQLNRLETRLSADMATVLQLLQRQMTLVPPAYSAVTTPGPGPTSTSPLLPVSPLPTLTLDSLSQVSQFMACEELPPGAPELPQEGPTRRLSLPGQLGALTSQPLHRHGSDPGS
The assay is described as follows: hERG Receptor Binding Assay (125I-BeKm-1, membranes from HEK-293 cells containing transfected hERG channels). The conditions noted are these: 125I-BeKm-1 0.1 nM final, 1 hr at room temperature. The method, then:
Medium throughput screening of compounds for interaction with the human Ether-a-go-go related gene (hERG) was performed by modification of equilibrium dissociation assays using 125I-labelled peptide BeKm-1. BeKm-1, a scorpion toxin from the Central Asian scorpion Buthus eupeus, selectively blocks the hERG channel. Angelo, K., et al., 2003, Pflugers Arch.-Eur. J. Physiol., 447: 55-63; Chiu, P J S, et al., J. Pharmacol. Sci., 2004, 95: 311-319. Isolated membrane preparations from HEK-293 cells containing transfected hERG channels (hERG K+ Channel Membrane Target Systems™; Cat #, RBHERGM400UA) (Perkin Elmer, Boston, Mass.) were suspended in assay buffer A at a final concentration of 1:150 v/v. Compounds for screening, and non-radiolabelled BeKm-1, as well as 125I-BeKm-1 radioligand (Perkin Elmer; Cat #, NEX-412; Specific Activity 2,200 Ci/mmol), were also reconstituted in Buffer A. Assay components were incubated in 96-well, round-bottom polypropylene plates in the following ratio:
25 μl compound at appropriate concentrations
25 μl radiolabelled BeKm-1 at 0.8 nM (final concentration of 0.1 nM)
150 μl membrane preparation
The assay was incubated with shaking for 1 hr at room temperature. Subsequently, the well contents were transferred to 96-well filtration plates (GF/C multiwell plates (MultiScreen™ HTS; Millipore, 290 Concord Road, Billerica, Mass. 01821 USA; Cat# MSFBN6B-XX pre-soaked in 0.3% polyethyleneimine; Acros Organics, NJ; Cat#178571000). Unbound radioactivity was removed and the membranes washed 4 times with ice-cold Buffer B, under vacuum. Plates were air-dried and bound radioactivity counted on a Packard Top-Count NXT™ microplate scintillation and luminescence counter (Packard Instrument Co., Downers Grove, Ill.). Equilibrium dissociation was analyzed and IC50 and/or Ki values were calculated using GraphPad Prism 4™ software (GraphPad Software, San Diego, Calif.).
Assay Buffer A: ([…] (MP Biomedicals, LLC; 29525 Fountain Parkway, Solon Ohio, 441389; Cat #1688449) in water, pH 7.2 with 1M Tris (Fisher Chemicals, Fair Lawn, N.J. 07410; Cat #, BP-1757-500); 100 μM KCl (Fisher Chemicals, Cat #, BP-366-500); 0.1% BSA (Sigma Aldrich, 3050 Spruce Street, St. Louis, Mo. 63103; Cat #, A3059). Assay Buffer B: 20 mM Tris HCl, pH 7.3; 150 mM NaCl (Fisher Chemicals; Cat #, S78449).
The hERG binding assay results are summarized in Table 2, wherein A represents no measured activity (i.e., a value greater than 100 μM), and B represents a value greater than 10 μM but less than 100 μM and C represents a value less than 10 μM.
With `N#Cc1ccc(Oc2cc(Cl)cc(Cl)c2)c(S(=O)(=O)N2CCC(NC(=O)c3cccc(F)c3)CC2)c1` [Compound 11, N-(1-(5-cyano-2-(3,5-dichlorophenoxy)phenylsulfonyl)piperidin-4-yl)-3-fluorobenzamide], the Ki is > 100 µM.
Still for that read-out and setting: then `Cc1ccc(C(=O)NC2CCN(S(=O)(=O)c3cc(C#N)ccc3Oc3cc(Cl)cc(Cl)c3)CC2)cc1` [Compound 10, N-(1-(5-cyano-2-(3,5-dichlorophenoxy)phenylsulfonyl)piperidin-4-yl)-4-methylbenzamide], with > 100 µM.
The same measure, in the same setting: then `CC(C)NC(=S)NC1CCN(S(=O)(=O)c2cc(C#N)ccc2Oc2cc(Cl)cc(Cl)c2)CC1` [Compound 17, 1-(1-(5-cyano-2-(3,5-dichlorophenoxy)phenylsulfonyl)piperidin-4-yl)-3-isopropylthiourea], with > 100 µM; and `CC(=O)NC1CCN(S(=O)(=O)c2cc(C#N)ccc2Oc2cc(Cl)cc(Cl)c2)CC1` [Compound 5, N-(1-(5-cyano-2-(3,5-dichlorophenoxy)phenylsulfonyl)piperidin-4-yl)acetamide], with > 100 µM; and `C=CCNC(=O)NC1CCN(S(=O)(=O)c2cc(C#N)ccc2Oc2cc(Cl)cc(Cl)c2)CC1` [Compound 13, 1-allyl-3-(1-(5-cyano-2-(3,5-dichlorophenoxy)phenylsulfonyl)piperidin-4-yl)urea], with > 100 µM.
Still for that read-out and setting: the same measure for `N#Cc1ccc(Oc2cc(Cl)cc(Cl)c2)c(S(=O)(=O)N2CCC(NC(=O)NCc3ccco3)CC2)c1` [Compound 16, 1-(1-(5-cyano-2-(3,5-dichlorophenoxy)phenylsulfonyl)piperidin-4-yl)-3-(furan-2-ylmethyl)urea]: > 100 µM; for `N#Cc1ccc(Oc2cc(Cl)cc(Cl)c2)c(S(=O)(=O)N2CCC(NC(=O)CCCCl)CC2)c1` [Compound 8, 4-chloro-N-(1-(5-cyano-2-(3,5-dichlorophenoxy)phenylsulfonyl)piperidin-4-yl)butanamide]: > 100 µM.
Consider `CC(C)NC(=O)NC1CCN(S(=O)(=O)c2cc(C#N)ccc2Oc2cc(Cl)cc(Cl)c2)CC1` [Compound 12, 1-(1-(5-cyano-2-(3,5-dichlorophenoxy)phenylsulfonyl)piperidin-4-yl)-3-isopropylurea], for which the Ki is > 100 µM.

The target in a further assay is T2, CCR3 receptor (UniProt P51677).
T2 sequence (P51677 1-355): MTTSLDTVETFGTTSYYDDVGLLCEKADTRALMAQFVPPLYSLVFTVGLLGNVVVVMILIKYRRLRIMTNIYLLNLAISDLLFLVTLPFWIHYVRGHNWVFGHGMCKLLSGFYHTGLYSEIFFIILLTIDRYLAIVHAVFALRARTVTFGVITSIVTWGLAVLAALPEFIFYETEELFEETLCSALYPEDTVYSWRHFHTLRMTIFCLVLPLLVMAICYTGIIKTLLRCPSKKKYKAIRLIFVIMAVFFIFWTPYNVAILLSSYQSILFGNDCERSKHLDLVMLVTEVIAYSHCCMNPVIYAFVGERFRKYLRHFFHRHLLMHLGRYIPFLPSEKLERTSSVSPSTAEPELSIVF
Kind of assay: CCR3 Receptor Binding Assay ([125I]-labeled human eotaxin/CCL11 displacement on cells). The note with it: 0.1 nM [125I]-labeled human eotaxin/CCL11, 60 min at room temperature. The method, then: Cells were washed once with PBS and resuspended in a binding buffer (25 mM HEPES pH 7.6, 5 mM MgCl2, 1 mM CaCl2, 0.5% BSA, 0.1% NaN3). […] of cell suspension (2×10^5 cells/well) and 0.1 nM [^125I]-labeled human eotaxin/CCL11 (2000 Ci/mmol specific activity) were mixed in a 96-well U-bottom polypropylene plate, and incubated for 60 min at room temperature for the binding reaction. The cell suspension was then transferred to a filtration plate (#MAFB, Millipore), and washed 3 times with the binding buffer containing 0.5 M NaCl, scintillant added, and the radioactivity was counted on a TopCount (Packard). For the determination of non-specific binding, the cell suspension and [^125I]-labeled human eotaxin/CCL11 were incubated in the presence of 500 nM of unlabeled human eotaxin/CCL11. See, lino et al., “Molecular cloning and functional characterization of cynomolgus monkey (Macaca fascicularis) CC chemokine receptor, CCR3,” Cytokine 2002, 19, 276-286.
The biological results are summarized in Table 1, wherein A represents a value no greater than 50 nM, and B represents a value greater than 50 nM but no greater than 500 nM, C represents a value greater than 500 nM but no greater than 5 μM; and D represents a value greater than 5 μM.
Consider `CN1CCN(CCNC(=O)NC2CCN(S(=O)(=O)c3cc(C#N)ccc3Oc3cc(Cl)cc(Cl)c3)CC2)CC1` [Compound 51, 1-(1-(5-cyano-2-(3,5-dichlorophenoxy)phenylsulfonyl)piperidin-4-yl)-3-(2-(4-methylpiperazin-1-yl)ethyl)urea], for which the inhibition constant (Ki) was ≤ 0.05 µM.
The same measure, in the same setting: the same measure for `N#Cc1ccc(Oc2cc(Cl)cc(Cl)c2)c(S(=O)(=O)N2CCC(NC(=O)NCCN3CCCCC3)CC2)c1` [Compound 48, 1-(1-(5-cyano-2-(3,5-dichlorophenoxy)phenylsulfonyl)piperidin-4-yl)-3-(2-(piperidin-1-yl)ethyl)urea]: ≤ 0.05 µM; for `Cc1cc(C)cc(Oc2ccc(C#N)cc2S(=O)(=O)NC2CCN(S(C)(=O)=O)CC2)c1` [Compound 37]: > 5 µM.
Consider `N#Cc1ccc(Oc2cc(Cl)cc(Cl)c2)c(S(=O)(=O)NC2CCN(C(=O)c3ccc(C(F)(F)F)cc3)CC2)c1` [Compound 34], for which the Ki is > 5 µM.
Still for that read-out and setting: then `N#Cc1ccc(Oc2cc(Cl)cc(Cl)c2)c(S(=O)(=O)NC2CCN(C(=O)c3ccccc3)CC2)c1` [Compound 35], with > 5 µM.
For `N#Cc1ccc(Oc2cc(Cl)cc(Cl)c2)c(S(=O)(=O)N2CCC(NC(=O)NCCN3CCNCC3)CC2)c1` [Compound 49, 1-(1-(5-cyano-2-(3,5-dichlorophenoxy)phenylsulfonyl)piperidin-4-yl)-3-(2-(piperazin-1-yl)ethyl)urea], the Ki is ≤ 0.05 µM.
Still for that read-out and setting: then `Cc1cc(C)cc(Sc2ccc(C#N)cc2S(=O)(=O)NC2CCN(C(=O)OC(C)(C)C)CC2)c1` [Compound 23], with 0.5 to 5 µM; and `N#Cc1ccc(Oc2cc(Cl)cc(Cl)c2)c(S(=O)(=O)N2CCC(NC(=O)NCCN3CCC(F)CC3)CC2)c1` [Compound 50, 1-(1-(5-cyano-2-(3,5-dichlorophenoxy)phenylsulfonyl)piperidin-4-yl)-3-(2-(4-fluoropiperidin-1-yl)ethyl)urea], with ≤ 0.05 µM; and `N#Cc1ccc(Oc2cc(Cl)cc(Cl)c2)c(S(=O)(=O)N2CCC(NC(=O)NCCN3CCSCC3)CC2)c1` [Compound 47, 1-(1-(5-cyano-2-(3,5-dichlorophenoxy)phenylsulfonyl)piperidin-4-yl)-3-(2-thiomorpholinoethyl)urea], with ≤ 0.05 µM.
The same measure, in the same setting: then `[2H]c1c([2H])c(Oc2cc(Cl)cc(Cl)c2)c(S(=O)(=O)N2CCC(NC(=O)NCC=C)CC2)c([2H])c1C#N` [Compound 53, 1-allyl-3-(1-(5-cyano-3,4,6-trideutero-2-(3,5-dichlorophenoxy)phenylsulfonyl)piperidin-4-yl)urea], with ≤ 0.05 µM; and `N#Cc1ccc(Oc2cc(Cl)cc(Cl)c2)c(S(=O)(=O)NC2CCN(C(=O)Nc3cccc(F)c3)CC2)c1` [Compound 44], with 0.05 to 0.5 µM; and `CC(C)(C)OC(=O)N1CCC(NS(=O)(=O)c2cc(C#N)ccc2Sc2cc(Cl)cc(Cl)c2)CC1` [Compound 45], with 0.5 to 5 µM.
Still for that read-out and setting: the same measure for `[2H]c1c([2H])c(Oc2cc(Cl)cc(Cl)c2)c(S(=O)(=O)N2CCC(NC(=O)NCCN3C([2H])([2H])C([2H])([2H])OC([2H])([2H])C3([2H])[2H])CC2)c([2H])c1C#N` [Compound 54, 1-(1-(5-cyano-3,4,6-trideutero-2-(3,5-dichlorophenoxy)phenylsulfonyl)piperidin-4-yl)-3-(2-(2,2,3,3,5,5,6,6-octadeutero-morpholino)ethyl)urea]: ≤ 0.05 µM.
As for `N#Cc1ccc(Oc2cc(Cl)cc(Cl)c2)c(S(=O)(=O)N2CCC(NC(=O)NCCN3CCOCC3)CC2)c1` [Compound 22, 1-(1-(5-cyano-2-(3,5-dichlorophenoxy)phenylsulfonyl)piperidin-4-yl)-3-(2-morpholinoethyl)urea], the inhibitory constant (Ki) was ≤ 0.05 µM.
Still for that read-out and setting: then `Cc1ccc(S(=O)(=O)N2CCC(NS(=O)(=O)c3cc(C#N)ccc3Oc3cc(C)cc(C)c3)CC2)cc1` [Compound 31, 5-cyano-2-(3,5-dimethylphenoxy)-N-(1-tosylpiperidin-4-yl)benzenesulfonamide], with > 5 µM; and `CC(C)C(=O)N1CCC(NS(=O)(=O)c2cc(C#N)ccc2Oc2cc(Cl)cc(Cl)c2)CC1` [Compound 39], with > 5 µM; and `N#Cc1ccc(Oc2cc(Cl)cc(Cl)c2)c(S(=O)(=O)NC2CCN(S(=O)(=O)c3cccc(F)c3)CC2)c1` [Compound 32, 5-cyano-2-(3,5-dichlorophenoxy)-N-(1-(3-fluorophenylsulfonyl)piperidin-4-yl)benzenesulfonamide], with > 5 µM.
